Values quoted from earlier work as cited in US7514574B2, “Biodegradable penetration enhancers with multiple hydrophilic moieties” (priority 2003, dated 2009).

How the values were obtained:
human cadaver skin = conditions: tritiated water, Hirvonen et al (1993)
mice = conditions: mouse, in vivo, ip

SMILES	increase of skin permeability to T2O (enhanced flux over passive flux) (human cadaver skin)	LD50 (mice)
CCCCCCCCCCCCOC(=O)CN(C)C [dodedyl, (N,N-dimethyl amino) acetate, dodecyl (N N-dimethyl amino) acetate]	13 times	–
CCCCCCCCCCCCN1CCCCCC1=O [Azone, 1-dodecylazacycloheptane-2-one]	8 times	232 mg/kg
